{"source": "patent US8338492B2", "about": "“Films and particles” (priority 2006, dated 2012)", "key": {"[1]": {"system": "Lewis Lung Carcinoma (LLC) cell line", "assay": "Cell proliferation assay (MTT, 5 days) with paclitaxel", "type": "cell-based, murine", "conditions": "media containing 10% FBS", "protocol": "(§1) Lewis Lung Carcinoma (LLC), Melanoma and Calu6 (human lung cancer) cell lines were plated at 3,000 cells/well and when established, cultured in media with/without paclitaxel."}, "[2]": {"system": "Calu6 (human lung cancer) cell line", "assay": "Cell proliferation assay (MTT, 5 days) with paclitaxel", "type": "cell-based", "conditions": "media containing 10% FBS", "protocol": "as §1"}, "Melanoma cell line": {"system": "Melanoma cell line", "conditions": "5 days, media containing 10% FBS", "method": "Cell proliferation assays testing the effects of paclitaxel were performed using three tumor cell lines. Lewis Lung Carcinoma (LLC), Melanoma and Calu6 (human lung cancer) cell lines were plated at 3,000 cells/well and when established, cultured in media with/without paclitaxel. Some cultures were maintained with optimal growth factors (serum) whereas others were serum starved (non-growing) cultures. At the end of 5 days, tumor cell proliferation was assessed via MTT analysis.\nTo determine the kinetics of the anti-tumor response elicited by paclitaxel-loaded microparticles and to assess for a potential “burst effect” of drug release, a cell proliferation assay comparing paclitaxel-loaded microparticles and DMSO (control) microparticles using the melanoma cell line was run for five consecutive days with a plate undergoing MTT analysis each day for days 2-5. Paclitaxel loaded microparticles and DMSO microparticles were added to serum rich media and individually assessed on tumor cells of the same plate."}, "Tumor cells": {"system": "Tumor cells", "conditions": "estimated", "method": "Cell proliferation assays were utilized to study the effects of paclitaxel-loaded microparticles on tumor growth. Tumor cells were plated at 3000 cells/well and positive (serum-rich) and negative (serum-poor) cultures were used to signify 0% and 100% growth inhibition respectively."}}, "data": [{"smiles": "CC(=O)O[C@H]1C(=O)[C@@]2(C)[C@H]([C@H](OC(=O)c3ccccc3)[C@]3(O)C[C@H](OC(=O)[C@H](O)[C@@H](NC(=O)c4ccccc4)c4ccccc4)C(C)=C1C3(C)C)[C@]1(OC(C)=O)CO[C@@H]1C[C@@H]2O", "note": "[paclitaxel]", "values": [{"measurement": "paclitaxel concentration that reliably inhibits growth", "setting": "[1]", "result": "1 to 10", "unit": "ng/mL"}, {"measurement": "paclitaxel concentration that reliably inhibits growth", "setting": "[2]", "result": "1 to 10", "unit": "ng/mL"}, {"measurement": "paclitaxel concentration that reliably inhibits growth", "setting": "Melanoma cell line", "result": "1 to 10", "unit": "ng/mL"}, {"measurement": "range of tumoricidal effects of paclitaxel", "setting": "Tumor cells", "result": "5 to 10", "unit": "ng"}]}]}
